Test results published in EP2823816A1, “Inhibitors of Neuropilin and use thereof for the treatment of Neuropilin-related diseases” (Tragex Pharma, priority 2013, dated 2015).

Key:
Neuropilin-1 (NRP-1) = target: T1, Neuropilin-1 (NRP-1) (Homo sapiens, UniProt O14786); assay: ELISA, inhibition of VEGF binding to coated receptor; details: VEGF-A165b / NRP-1; compound at 10 µM; read-out: Percent of binding inhibition (± SD)
T1 construct: purchased R&D Systems, UK 3870-N1-025
Protocol: Elisa test was performed covering a 96-well microplate (BD Biosciences, France, cat n° 353046) surface with 100 µL of 1X PBS, pH 7.4 with Ca^2+ and Mg^2+, (Lonza, France, cat n° 17-513F/12) solution containing 0.2 µg/mL of VEGF-R1 (R&D Systems, UK, cat n° 321-FL-050/CF) or 2 µg/mL of NRP-1 (R&D Systems, UK, cat n° 3870-N1-025). The plate was sealed and incubated overnight at 4°C. After 3 washes with 200 µL of 1X PBS 0.5% (v/v) Tween 20 (Sigma, France, cat n° 34078) (Buffer A), the plate was blocked by adding 200 µL of 1× PBS with 0.5% (w/v) BSA (Eurobio, France, cat n° GAUBSA01-65) and agitated at 37°C for 2 h. […] Luminescence was quantified with an EnVision™ 2101 Multilabel reader (Perkin Elmer, USA) and the data analyzed by Wallac Envision manager software. […] Non-specific binding is defined as the signal measured in the absence of receptor coated on the microplate. The specific binding was calculated as the difference between total binding and non-specific binding. The percentage of inhibition was calculated as following: Inhibition % = 100 × ((Signal measured-non specific binding signal))/((Max binding signal obtained without inhibitor-non specific binding signal without receptor)) [formula]

NCI-H460 = assay: WST-1 proliferation / cytotoxic test; assay type: cell-based; details: Homo sapiens, Lung, wst-1 cytotoxic test, 72 h
Protocol: (§1) After observation of cells under the microscope, old media were removed and the adherent cells washed gently twice with PBS (Phosphate Buffer Saline, -Ca^2+, -Mg^2+, Lonza cat n°: 17-512F/12). All cells were detached with 3 ml of trypsin/EDTA (chelator of calcium and magnesium ions) (Lonza), incubated for 5 min at 37°C, and examined using a microscope to ensure that the cells were detached and floating. Then, 3 ml TNS (Trypsin Neutralizing Solution, Lonza, France, cat n° CC-5002) or of culture medium were added to inactivate the trypsin, and the cell suspension was transferred in a falcon tube and centrifuged for 7 min at 1400 rpm. The supernatant was removed and the cell pellet resuspended in […] of culture medium. 50 µL of this solution were transferred in 20 µL of isotonic solution and the cells were counted by count cellular (Beckman Coulter). At day 0, 200 µL of cellular suspension (3.10^3 cells/well for the HUVEC cells, breast cancer cells (MDA-MB-231 1.10^4 cells/well, MDA-MB-468 2.10^4 cells/well,); cervical cancer cells (HeLa 5.000 cells/well); colon cancer cells (HCT-116 5.10^3 cells/well, HCT-29 1.1.10^4 cells/well); pancreas cancer cells (Panc-10.5 1.5.10^4 cells/well); brain cancer cells (U87 5.10^3 cells/well, SH-SYSY 8.10^4 cells/well); Lung cancer cells (A 549 1.10^4 cells/well, NCI-H460 1.10^4 cells/well); fibrosarcoma cells (HT 1080 8.10^3 cells/well); Burkitt's lymphoma cells (DAUDI 3.10^4 cells/well); acute lymphoblastic leukemia cells (CEM 3.10^4 cells/well); chronic myeloid leukemia cells (ERY 5.10^4 cells/well); mantle cell lymphoma (GRANTA 1.10^5 cells/well); B lymphoma cells (VAL 1.10^5 cells/well)) were then plated on 96 well plates and incubated at 37°C in a humidified atmosphere of 5% CO2 for 24 h.
(§2) At day 1, the compound 1 of the invention was added at increasing concentrations (0.1 - 10 µM) in the wells and plates were incubated at 37°C in a humidified atmosphere of 5% CO2 for 72 h.
(§3) The cell proliferation WST-1 assay is a colorimetric assay for the quantification of cell proliferation and viability, based on the enzymatic cleavage of the tetrazolium salt WST-1 added to the culture medium, to a water soluble colored formazan dye, detected by absorbance at 450 nm, by mitochondrial succinate-tetrazoliumreductase in viable cells. An augmentation in enzyme activity will then lead to an increase in the amount of formazan dye formed, which directly correlates to the number of metabolically active cells in the culture.
(§4) After an incubation period of 72 h, at day 4, were prepared the 19 mL medium with reagent WST-1 1mL ([…]). The medium was removed from the 96 microplate and 200 µL of solution WST-1/medium were added for each well. The cells were incubated at 37°C in a humidified atmosphere of 5% CO2 for 1h30 and the absorbance at 450-655 nm was measured by Microplate Manager 5.2 (Bio-Rad).

HT-29 = assay: WST-1 proliferation / cytotoxic test; assay type: cell-based; details: Homo sapiens, Colon, wst-1 cytotoxic test, 72 h
Protocol: as §1, §2, §3, §4

U87 = assay: WST-1 proliferation / cytotoxic test; assay type: cell-based; details: Homo sapiens, U-87 MG, Brain, wst-1 cytotoxic test, 72 h
Protocol: as §1, §2, §3, §4

VAL = assay: WST-1 proliferation / cytotoxic test; assay type: cell-based; details: Homo sapiens, B lymphoma, wst-1 cytotoxic test, 72 h
Protocol: as §1, §2, §3, §4

DAUDI = assay: WST-1 proliferation / cytotoxic test; assay type: cell-based; details: Homo sapiens, Burkitt's lymphoma, wst-1 cytotoxic test, 72 h
Protocol: as §1, §2, §3, §4

HCT-116 = assay: WST-1 proliferation / cytotoxic test; assay type: cell-based; details: Homo sapiens, Colon, wst-1 cytotoxic test, 72 h
Protocol: as §1, §2, §3, §4

ERY-1 = assay: WST-1 proliferation / cytotoxic test; assay type: cell-based; details: Homo sapiens, Chronic myeloid leukemia, wst-1 cytotoxic test, 72 h
Protocol: as §1, §2, §3, §4

MDA-MB-468 = assay: WST-1 proliferation / cytotoxic test; assay type: cell-based; details: Homo sapiens, Breast, wst-1 cytotoxic test, 72 h
Protocol: as §1, §2, §3, §4

CEM = assay: WST-1 proliferation / cytotoxic test; assay type: cell-based; details: Homo sapiens, CCRF-CEM, Acute lymphoblastic leukemia, wst-1 cytotoxic test, 72 h
Protocol: as §1, §2, §3, §4

MDA-MB-231 cells = assay: Adhesion test (crystal violet); assay type: cell-based, human; details: in vitro, Figure 3A

T1 sequence (O14786 22-644 isoform O14786-2 limits assumed): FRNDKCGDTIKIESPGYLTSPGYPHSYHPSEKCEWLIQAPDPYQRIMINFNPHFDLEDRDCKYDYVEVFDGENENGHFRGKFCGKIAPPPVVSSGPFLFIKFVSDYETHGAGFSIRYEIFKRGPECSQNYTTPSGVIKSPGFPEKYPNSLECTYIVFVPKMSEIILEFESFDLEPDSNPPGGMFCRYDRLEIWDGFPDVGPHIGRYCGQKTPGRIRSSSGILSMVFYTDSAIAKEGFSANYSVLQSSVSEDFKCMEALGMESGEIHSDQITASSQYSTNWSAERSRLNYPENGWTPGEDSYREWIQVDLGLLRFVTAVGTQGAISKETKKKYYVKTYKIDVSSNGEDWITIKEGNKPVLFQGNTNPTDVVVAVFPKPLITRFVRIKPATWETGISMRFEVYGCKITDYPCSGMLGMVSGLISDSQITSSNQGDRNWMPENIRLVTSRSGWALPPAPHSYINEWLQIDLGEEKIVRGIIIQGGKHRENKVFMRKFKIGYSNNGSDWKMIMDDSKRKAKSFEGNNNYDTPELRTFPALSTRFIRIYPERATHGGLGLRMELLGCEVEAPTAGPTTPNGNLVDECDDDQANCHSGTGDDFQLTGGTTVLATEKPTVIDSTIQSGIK

CCOc1ccccc1NC(=O)c1ccc(C)c(S(=O)(=O)Nc2ccc(C)cc2)c1 [Compound 1, N-(2-ethoxyphenyl)-4-methyl-3-(N-(p-tolyl)sulfamoyl)benzamide]
inhibition at 10 µM (Neuropilin-1 (NRP-1)): 32 ± 3.2%
IC50 (NCI-H460): 500 ± 70 nM
IC50 (HT-29): 500 ± 10 nM
IC50 (U87): 500 ± 20 nM
IC50 (VAL): 1000 ± 60 nM
IC50 (DAUDI): 500 ± 20 nM
IC50 (HCT-116): 500 ± 70 nM
IC50 (ERY-1): 200 ± 30 nM
IC50 (MDA-MB-468): 500 ± 60 nM
IC50 (CEM): 100 ± 80 nM
adhesion of MDA-MB-231 cells (MDA-MB-231 cells): inhibits
